Measured values published in ChEMBL document CHEMBL3991601, “The target landscape of clinical kinase drugs” (Science, 2017).
Calls of active or inactive are those of the source. For most assays here, no stated cut-off is given here; in the data, actives have a measured Kd and inactives only a lower limit.

What was measured:
[1] = target: Serine/threonine-protein kinase PAK 2 (Homo sapiens, UniProt Q13177)
Myosin-14 = Myosin-14 (Homo sapiens, UniProt Q7Z406)
[2] = target: Inosine-5'-monophosphate dehydrogenase 2 (Homo sapiens, UniProt P12268)
[3] = target: Serine/threonine-protein kinase MRCK alpha (Homo sapiens, UniProt Q5VT25)
Serine/threonine-protein kinase MRCK alpha, sequence (Q5VT25 whole entry): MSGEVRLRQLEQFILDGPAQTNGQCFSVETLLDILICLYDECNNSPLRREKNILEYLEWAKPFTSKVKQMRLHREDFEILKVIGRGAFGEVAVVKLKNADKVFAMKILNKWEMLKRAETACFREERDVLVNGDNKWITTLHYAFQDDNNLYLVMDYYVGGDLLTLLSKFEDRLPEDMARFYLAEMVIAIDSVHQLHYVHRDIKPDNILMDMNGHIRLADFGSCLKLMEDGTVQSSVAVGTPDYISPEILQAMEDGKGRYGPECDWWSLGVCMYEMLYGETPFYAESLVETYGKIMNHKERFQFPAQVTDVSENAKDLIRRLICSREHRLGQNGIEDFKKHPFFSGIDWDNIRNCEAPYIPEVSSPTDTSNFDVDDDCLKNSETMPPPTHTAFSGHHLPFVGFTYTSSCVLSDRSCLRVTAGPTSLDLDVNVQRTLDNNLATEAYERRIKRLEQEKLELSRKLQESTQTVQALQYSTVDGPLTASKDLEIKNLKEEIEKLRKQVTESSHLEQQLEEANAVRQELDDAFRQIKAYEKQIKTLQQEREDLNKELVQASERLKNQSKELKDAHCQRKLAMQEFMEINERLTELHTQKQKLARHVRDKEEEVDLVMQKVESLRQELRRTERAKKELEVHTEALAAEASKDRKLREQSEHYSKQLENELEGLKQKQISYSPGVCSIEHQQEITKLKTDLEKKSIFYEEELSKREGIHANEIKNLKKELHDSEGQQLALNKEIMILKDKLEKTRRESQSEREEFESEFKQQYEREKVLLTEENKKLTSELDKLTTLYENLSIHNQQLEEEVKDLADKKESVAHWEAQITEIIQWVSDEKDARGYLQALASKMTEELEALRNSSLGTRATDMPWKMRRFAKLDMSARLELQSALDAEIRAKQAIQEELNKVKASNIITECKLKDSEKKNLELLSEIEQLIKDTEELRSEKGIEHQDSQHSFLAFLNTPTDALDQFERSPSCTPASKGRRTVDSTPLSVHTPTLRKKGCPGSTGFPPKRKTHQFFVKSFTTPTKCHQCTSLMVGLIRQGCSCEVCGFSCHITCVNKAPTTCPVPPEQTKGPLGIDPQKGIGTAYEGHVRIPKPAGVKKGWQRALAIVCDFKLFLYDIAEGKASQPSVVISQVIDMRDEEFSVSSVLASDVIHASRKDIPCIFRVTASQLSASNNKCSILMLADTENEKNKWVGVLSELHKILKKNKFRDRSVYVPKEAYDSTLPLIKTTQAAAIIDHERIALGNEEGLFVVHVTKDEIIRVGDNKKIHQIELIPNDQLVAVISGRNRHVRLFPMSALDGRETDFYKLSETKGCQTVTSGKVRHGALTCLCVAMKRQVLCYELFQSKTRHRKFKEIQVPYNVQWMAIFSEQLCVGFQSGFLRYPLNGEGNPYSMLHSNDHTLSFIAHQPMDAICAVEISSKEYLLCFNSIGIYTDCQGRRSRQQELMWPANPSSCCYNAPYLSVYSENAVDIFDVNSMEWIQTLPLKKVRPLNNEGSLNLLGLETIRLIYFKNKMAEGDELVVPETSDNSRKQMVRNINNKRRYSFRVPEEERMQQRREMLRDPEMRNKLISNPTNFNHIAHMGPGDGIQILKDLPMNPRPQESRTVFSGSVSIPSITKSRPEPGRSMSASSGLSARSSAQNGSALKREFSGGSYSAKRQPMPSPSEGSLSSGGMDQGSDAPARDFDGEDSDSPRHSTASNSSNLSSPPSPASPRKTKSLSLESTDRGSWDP

Midasin = Midasin (Homo sapiens, UniProt Q9NU22)
Activated CDC42 kinase 1 = Activated CDC42 kinase 1 (Homo sapiens, UniProt Q07912)
Activated CDC42 kinase 1, sequence (Q07912 whole entry): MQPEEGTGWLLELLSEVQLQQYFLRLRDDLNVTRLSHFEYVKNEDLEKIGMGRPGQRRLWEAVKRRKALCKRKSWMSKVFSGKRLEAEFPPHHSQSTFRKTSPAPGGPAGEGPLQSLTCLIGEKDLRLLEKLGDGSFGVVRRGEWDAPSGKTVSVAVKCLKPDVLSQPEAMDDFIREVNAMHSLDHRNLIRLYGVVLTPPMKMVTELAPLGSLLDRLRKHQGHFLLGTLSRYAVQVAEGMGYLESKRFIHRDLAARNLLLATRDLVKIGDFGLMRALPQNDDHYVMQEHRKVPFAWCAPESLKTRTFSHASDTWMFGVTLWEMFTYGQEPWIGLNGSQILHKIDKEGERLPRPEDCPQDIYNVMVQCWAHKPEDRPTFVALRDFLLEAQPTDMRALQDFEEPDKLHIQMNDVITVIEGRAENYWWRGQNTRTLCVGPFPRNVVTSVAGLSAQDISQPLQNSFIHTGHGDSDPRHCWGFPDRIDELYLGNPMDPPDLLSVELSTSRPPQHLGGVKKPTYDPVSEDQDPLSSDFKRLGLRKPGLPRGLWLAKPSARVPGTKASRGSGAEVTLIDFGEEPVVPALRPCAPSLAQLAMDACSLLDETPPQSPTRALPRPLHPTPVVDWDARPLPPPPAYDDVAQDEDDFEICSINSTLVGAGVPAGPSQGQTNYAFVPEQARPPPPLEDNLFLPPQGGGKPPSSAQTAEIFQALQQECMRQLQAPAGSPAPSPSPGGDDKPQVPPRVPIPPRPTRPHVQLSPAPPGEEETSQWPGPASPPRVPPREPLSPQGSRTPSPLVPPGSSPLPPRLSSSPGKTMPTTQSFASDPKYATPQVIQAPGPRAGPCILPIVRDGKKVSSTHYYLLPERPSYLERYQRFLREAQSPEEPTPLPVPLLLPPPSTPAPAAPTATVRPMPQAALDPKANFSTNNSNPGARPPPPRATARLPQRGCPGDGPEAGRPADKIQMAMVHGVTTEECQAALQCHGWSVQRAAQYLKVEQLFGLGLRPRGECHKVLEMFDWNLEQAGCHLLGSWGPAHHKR

[4] = target: Serine/threonine-protein kinase N2 (Homo sapiens, UniProt Q16513)
Serine/threonine-protein kinase N2, sequence (Q16513 whole entry): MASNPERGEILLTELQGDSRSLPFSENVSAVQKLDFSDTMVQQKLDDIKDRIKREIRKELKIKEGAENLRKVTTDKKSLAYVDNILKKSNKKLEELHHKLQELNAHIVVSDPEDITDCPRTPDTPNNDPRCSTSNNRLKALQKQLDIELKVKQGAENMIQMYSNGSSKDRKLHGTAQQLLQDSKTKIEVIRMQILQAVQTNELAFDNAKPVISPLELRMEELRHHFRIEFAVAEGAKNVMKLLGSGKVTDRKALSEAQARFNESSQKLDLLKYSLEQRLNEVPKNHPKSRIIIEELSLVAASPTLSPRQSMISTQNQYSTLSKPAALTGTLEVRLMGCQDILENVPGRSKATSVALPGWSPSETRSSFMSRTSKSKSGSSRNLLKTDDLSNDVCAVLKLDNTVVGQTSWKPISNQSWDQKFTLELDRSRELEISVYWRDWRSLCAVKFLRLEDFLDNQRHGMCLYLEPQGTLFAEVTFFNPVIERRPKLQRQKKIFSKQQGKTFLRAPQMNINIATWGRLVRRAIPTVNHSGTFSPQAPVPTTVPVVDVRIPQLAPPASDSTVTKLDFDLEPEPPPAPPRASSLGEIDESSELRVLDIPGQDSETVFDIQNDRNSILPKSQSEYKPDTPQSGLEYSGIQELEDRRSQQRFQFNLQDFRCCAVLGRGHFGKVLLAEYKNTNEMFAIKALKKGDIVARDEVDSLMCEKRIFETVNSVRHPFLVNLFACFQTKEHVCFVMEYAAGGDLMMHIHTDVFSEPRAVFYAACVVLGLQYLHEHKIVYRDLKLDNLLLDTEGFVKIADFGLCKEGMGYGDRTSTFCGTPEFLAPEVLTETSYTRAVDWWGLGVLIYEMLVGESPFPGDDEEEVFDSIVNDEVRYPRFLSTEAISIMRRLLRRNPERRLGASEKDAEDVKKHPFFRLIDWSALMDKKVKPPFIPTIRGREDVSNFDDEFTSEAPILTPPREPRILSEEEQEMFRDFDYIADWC

[5] = target: Tyrosine-protein kinase Fyn (Homo sapiens, UniProt P06241)
Tyrosine-protein kinase Fyn, sequence (P06241 whole entry): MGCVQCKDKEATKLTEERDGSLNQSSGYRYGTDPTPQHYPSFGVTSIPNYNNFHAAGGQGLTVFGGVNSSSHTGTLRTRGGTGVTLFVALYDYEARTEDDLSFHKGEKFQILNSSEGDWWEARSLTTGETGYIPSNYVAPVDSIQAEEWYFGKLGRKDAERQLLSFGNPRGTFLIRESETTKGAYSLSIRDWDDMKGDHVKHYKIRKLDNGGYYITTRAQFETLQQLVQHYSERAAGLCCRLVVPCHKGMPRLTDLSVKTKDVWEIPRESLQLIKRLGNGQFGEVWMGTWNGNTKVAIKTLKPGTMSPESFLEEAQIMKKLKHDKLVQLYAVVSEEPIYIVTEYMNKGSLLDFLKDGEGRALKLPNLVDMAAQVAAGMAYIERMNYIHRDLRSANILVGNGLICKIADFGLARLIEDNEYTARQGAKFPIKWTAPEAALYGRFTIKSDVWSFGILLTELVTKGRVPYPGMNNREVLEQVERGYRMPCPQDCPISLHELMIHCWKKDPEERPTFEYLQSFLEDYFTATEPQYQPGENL

[6] = target: Ribosomal protein S6 kinase beta-1 (Homo sapiens, UniProt P23443)
Ephrin type-A receptor 2 = Ephrin type-A receptor 2 (Homo sapiens, UniProt P29317)
[7] = target: T1, Serine/threonine-protein kinase 4 (Homo sapiens, UniProt Q13043)
T1 sequence (Q13043 whole entry): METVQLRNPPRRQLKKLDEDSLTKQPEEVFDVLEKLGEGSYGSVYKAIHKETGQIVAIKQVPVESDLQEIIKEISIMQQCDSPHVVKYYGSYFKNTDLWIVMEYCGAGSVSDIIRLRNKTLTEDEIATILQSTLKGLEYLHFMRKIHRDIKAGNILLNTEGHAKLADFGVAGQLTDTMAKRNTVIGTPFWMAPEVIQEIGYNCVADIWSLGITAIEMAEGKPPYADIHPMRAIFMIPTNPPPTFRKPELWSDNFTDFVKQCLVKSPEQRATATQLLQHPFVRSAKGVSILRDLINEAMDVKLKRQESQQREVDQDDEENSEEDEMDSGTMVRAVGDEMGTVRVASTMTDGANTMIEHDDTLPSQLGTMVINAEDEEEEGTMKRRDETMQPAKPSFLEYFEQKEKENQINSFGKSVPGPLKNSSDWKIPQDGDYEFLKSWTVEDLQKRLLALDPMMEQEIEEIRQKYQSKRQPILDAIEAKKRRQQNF

[8] = target: T2, Serine/threonine-protein kinase Nek9 (Homo sapiens, UniProt Q8TD19)
T2 sequence (Q8TD19 whole entry): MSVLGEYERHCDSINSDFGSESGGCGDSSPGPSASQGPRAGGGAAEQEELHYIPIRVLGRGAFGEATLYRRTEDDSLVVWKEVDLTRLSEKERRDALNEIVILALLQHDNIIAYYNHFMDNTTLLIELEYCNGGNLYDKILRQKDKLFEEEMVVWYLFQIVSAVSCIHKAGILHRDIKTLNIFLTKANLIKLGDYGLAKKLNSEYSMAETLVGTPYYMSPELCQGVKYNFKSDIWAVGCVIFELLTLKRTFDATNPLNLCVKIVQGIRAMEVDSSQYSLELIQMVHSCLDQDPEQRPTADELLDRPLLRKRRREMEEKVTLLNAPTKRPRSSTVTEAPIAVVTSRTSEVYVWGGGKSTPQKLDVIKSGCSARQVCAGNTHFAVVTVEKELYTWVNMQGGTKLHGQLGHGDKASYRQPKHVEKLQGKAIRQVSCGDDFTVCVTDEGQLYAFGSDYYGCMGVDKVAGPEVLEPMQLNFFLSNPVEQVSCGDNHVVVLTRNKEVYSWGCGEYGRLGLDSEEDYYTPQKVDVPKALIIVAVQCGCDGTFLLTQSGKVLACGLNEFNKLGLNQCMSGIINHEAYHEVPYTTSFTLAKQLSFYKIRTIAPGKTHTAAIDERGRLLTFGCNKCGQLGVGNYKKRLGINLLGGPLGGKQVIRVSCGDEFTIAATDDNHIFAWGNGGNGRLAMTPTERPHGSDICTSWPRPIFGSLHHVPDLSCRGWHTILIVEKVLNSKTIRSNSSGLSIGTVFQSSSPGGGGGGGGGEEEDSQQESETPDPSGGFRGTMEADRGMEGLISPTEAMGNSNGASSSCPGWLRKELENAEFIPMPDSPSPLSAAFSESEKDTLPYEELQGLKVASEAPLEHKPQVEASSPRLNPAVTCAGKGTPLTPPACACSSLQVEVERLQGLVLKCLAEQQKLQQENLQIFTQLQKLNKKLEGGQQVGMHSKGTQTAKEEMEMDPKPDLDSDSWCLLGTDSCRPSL

[9] = target: Cyclin-dependent kinase 13 (Homo sapiens, UniProt Q14004)
[10] = target: Rho-associated protein kinase 1 (Homo sapiens, UniProt Q13464)
[11] = target: RAC-gamma serine/threonine-protein kinase (Homo sapiens, UniProt Q9Y243)

Measured: Kd

Serine/threonine-protein kinase PAK 2, sequence (Q13177 whole entry): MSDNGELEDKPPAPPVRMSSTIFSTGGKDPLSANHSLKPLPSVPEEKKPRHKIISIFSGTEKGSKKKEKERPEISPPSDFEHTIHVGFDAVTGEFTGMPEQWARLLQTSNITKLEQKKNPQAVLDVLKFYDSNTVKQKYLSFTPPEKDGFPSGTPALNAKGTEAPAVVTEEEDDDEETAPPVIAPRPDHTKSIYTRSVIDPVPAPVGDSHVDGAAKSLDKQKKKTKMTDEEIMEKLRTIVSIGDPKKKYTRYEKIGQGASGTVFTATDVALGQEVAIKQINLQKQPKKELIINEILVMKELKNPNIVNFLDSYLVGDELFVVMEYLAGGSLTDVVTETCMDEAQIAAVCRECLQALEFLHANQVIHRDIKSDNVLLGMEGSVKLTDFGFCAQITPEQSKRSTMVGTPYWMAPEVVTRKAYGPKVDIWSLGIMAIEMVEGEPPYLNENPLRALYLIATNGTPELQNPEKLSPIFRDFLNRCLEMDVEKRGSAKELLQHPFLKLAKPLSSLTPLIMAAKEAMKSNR

Cc1nc2cc(-c3nn(C(C)C)c4ncnc(N)c34)ccc2o1
inactive: [1] > 30 µM | Myosin-14 > 30 µM | [2] > 30 µM | [3] > 30 µM | Midasin > 30 µM | Activated CDC42 kinase 1 > 30 µM | [4] > 30 µM | [5] > 30 µM | [6] > 30 µM | Ephrin type-A receptor 2 > 30 µM | [7] > 30 µM | [8] > 30 µM | [9] > 30 µM | [10] > 30 µM | [11] > 30 µM

COCc1c(-c2ccc(NC(=O)Nc3cc(C(F)(F)F)ccc3F)c(F)c2)c2c(N)ncnn2c1CN1CCOCC1
inactive: [1] > 30 µM | Myosin-14 > 30 µM | [2] > 30 µM | [3] > 30 µM | Midasin > 30 µM | Activated CDC42 kinase 1 > 30 µM | [4] > 30 µM | [5] > 30 µM | [6] > 30 µM | Ephrin type-A receptor 2 > 30 µM | [7] > 30 µM | [8] > 30 µM | [9] > 30 µM | [10] > 30 µM | [11] > 30 µM

Cc1nc(NC(=O)N2CCC[C@H]2C(N)=O)sc1-c1ccnc(C(C)(C)C(F)(F)F)c1 [ALPELISIB]
inactive: [1] > 30 µM | Myosin-14 > 30 µM | [2] > 30 µM | [3] > 30 µM | Midasin > 30 µM | Activated CDC42 kinase 1 > 30 µM | [4] > 30 µM | [5] > 30 µM | [6] > 30 µM | Ephrin type-A receptor 2 > 30 µM | [7] > 30 µM | [8] > 30 µM | [9] > 30 µM | [10] > 30 µM | [11] > 30 µM

Cn1cnc2c(F)c(Nc3ccc(Br)cc3F)c(C(=O)NOCCO)cc21 [BINIMETINIB]
inactive: [1] > 30 µM | Myosin-14 > 30 µM | [2] > 30 µM | [3] > 30 µM | Midasin > 30 µM | Activated CDC42 kinase 1 > 30 µM | [4] > 30 µM | [5] > 30 µM | [6] > 30 µM | Ephrin type-A receptor 2 > 30 µM | [7] > 30 µM | [8] > 30 µM | [9] > 30 µM | [10] > 30 µM | [11] > 30 µM

CCn1c(C(=O)N(C2CC2)C2CC2)cc2c3c(ncn3C)c(Nc3cc(C)n(C)n3)nc21 [BMS-911543]
inactive: [1] > 30 µM | Myosin-14 > 30 µM | [2] > 30 µM | [3] > 30 µM | Midasin > 30 µM | Activated CDC42 kinase 1 > 30 µM | [4] > 30 µM | [5] > 30 µM | [6] > 30 µM | Ephrin type-A receptor 2 > 30 µM | [7] > 30 µM | [8] > 30 µM | [9] > 30 µM | [10] > 30 µM | [11] > 30 µM

COc1c(OCCCN2CCOCC2)ccc2c1N=C(NC(=O)c1cnc(N)nc1)N1CCN=C21 [COPANLISIB]
inactive: [1] > 30 µM | Myosin-14 > 30 µM | [2] > 30 µM | [3] > 30 µM | Midasin > 30 µM | Activated CDC42 kinase 1 > 30 µM | [4] > 30 µM | [5] > 30 µM | [6] > 30 µM | Ephrin type-A receptor 2 > 30 µM | [7] > 30 µM | [8] > 30 µM | [9] > 30 µM | [10] > 30 µM | [11] > 30 µM

COCC(=O)NC/C=C/c1ccc2ncnc(Nc3ccc(Oc4ccc(C)nc4)c(C)c3)c2c1 [CP-724714]
inactive: [1] > 30 µM | Myosin-14 > 30 µM | [2] > 30 µM | [3] > 30 µM | Midasin > 30 µM | Activated CDC42 kinase 1 > 30 µM | [4] > 30 µM | [5] > 30 µM | [6] > 30 µM | Ephrin type-A receptor 2 > 30 µM | [7] > 30 µM | [8] > 30 µM | [9] > 30 µM | [10] > 30 µM | [11] > 30 µM

C#Cc1cccc(Nc2ncnc3cc(OC)c(OCCCCCCC(=O)NO)cc23)c1 [CUDC-101]
inactive: [1] > 30 µM | Myosin-14 > 30 µM | [2] > 30 µM | [3] > 30 µM | Midasin > 30 µM | Activated CDC42 kinase 1 > 30 µM | [4] > 30 µM | [5] > 30 µM | [6] > 30 µM | Ephrin type-A receptor 2 > 30 µM | [7] > 30 µM | [8] > 30 µM | [9] > 30 µM | [10] > 30 µM | [11] > 30 µM

O=C(Nc1nc2cccc(-c3ccc(CN4CCS(=O)(=O)CC4)cc3)n2n1)C1CC1 [FILGOTINIB]
inactive: [1] > 30 µM | Myosin-14 > 30 µM | [2] > 30 µM | [3] > 30 µM | Midasin > 30 µM | Activated CDC42 kinase 1 > 30 µM | [4] > 30 µM | [5] > 30 µM | [6] > 30 µM | Ephrin type-A receptor 2 > 30 µM | [7] > 30 µM | [8] > 30 µM | [9] > 30 µM | [10] > 30 µM | [11] > 30 µM
